pIC50: −log10 of the molar value.

This note sets out measurements from patent US20260216180A1, “QUINOLINE DERIVATIVE COMPOUNDS OR PHARMACEUTICALLY ACCEPTABLE SALT THEREOF, PREPARATION METHOD THEREFOR AND USE THEREOF” (JIANGSU CAREPHAR PHARMACEUTICAL CO.,LTD., priority 2023, published 2026).

One experiment relates to IL-6. Briefly: Macrophage IL-6 secretion after LPS (ELISA). The settings on record: Bone marrow macrophage, compared to 0 μM, mouse bone marrow macrophages, 200 ng/ml LPS, 6 hours, read-out: Inhibition rate of IL-6 at 10 μM concentration. Format: cell-based. On the procedure: (§1) Pharmacological Activity Test: Regulatory Effect of Quinoline Derivatives on Macrophage IL-6 and TNF-α Secretion
(§2) Mouse bone marrow cells were isolated from the femur and tibia bone marrow of […] mice of 6-8 week old raised under SPF conditions and inoculated in 6-well plates at a density of 1.5*10^6 cells/well/2 mL. 50 ng/mL M-CSF was added to each well and the cells were cultured in a CO2 incubator for 3 days. On the third day, the culture medium was replaced with fresh medium containing 100 ng/mL M-CSF and the culture was continued for 3 days. On the 6th day, the supernatant was removed and the cells were washed once with DPBS. After adding 1 mL of DPBS, the macrophages were harvested using a cell scraper, centrifuged at 400 g for 10 min, and the supernatant was discarded. The cells were resuspended in fresh culture medium containing 50 ng/mL M-CSF, inoculated in a 96-well plate at a density of 2*10^4 cells/well/200 μL, and cultured in a CO2 incubator overnight. 0, 3, 5, […] of the test compound were added to each well (wherein well 0 contains 0.1% DMSO) respectively and incubate in a CO2 incubator for 1 hour. Then 200 ng/ml LPS was added and the cell supernatant was collected after 6 hours of co-culture. ELISA kits were used to detect the secretion levels of IL-6 and TNF-α.

For another experiment, the system named is TNF-α. Briefly: Macrophage TNF-α secretion after LPS (ELISA). It counts as cell-based. The settings on record: Bone marrow macrophage, compared to 0 μM, mouse bone marrow macrophages, 200 ng/ml LPS, 6 hours, read-out: Inhibition rate of TNFα at 10 μM concentration. As to the method: as §1, §2
For another experiment, the target named is T1, CYP2B6 (Homo sapiens, UniProt P20813).
T1 construct: Commercially available mixed human liver microsomes were used; from tissue; host or cells: pooled human liver microsomes
T1 sequence (P20813 1-491): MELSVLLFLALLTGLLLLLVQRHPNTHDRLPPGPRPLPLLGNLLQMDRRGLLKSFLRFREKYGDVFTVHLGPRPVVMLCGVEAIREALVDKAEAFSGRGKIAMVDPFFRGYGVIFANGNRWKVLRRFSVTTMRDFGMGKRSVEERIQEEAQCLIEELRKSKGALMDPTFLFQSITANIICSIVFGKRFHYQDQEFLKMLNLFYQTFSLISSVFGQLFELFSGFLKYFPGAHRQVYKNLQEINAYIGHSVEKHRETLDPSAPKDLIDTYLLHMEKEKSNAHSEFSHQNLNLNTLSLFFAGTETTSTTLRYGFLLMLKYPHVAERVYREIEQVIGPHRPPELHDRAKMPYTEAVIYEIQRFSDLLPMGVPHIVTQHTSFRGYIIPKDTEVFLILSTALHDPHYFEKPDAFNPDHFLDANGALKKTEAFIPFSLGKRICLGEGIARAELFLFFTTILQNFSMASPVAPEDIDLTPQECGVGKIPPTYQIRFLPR
Briefly: CYP enzyme inhibition, human liver microsomes, CYP2B6. Format: in vitro ADME. Particulars: probe substrate Bupropion, read-out: IC50 CYP 2B6. On the procedure:
(§3) Commercially available mixed human liver microsomes were used, with the liver microsome concentrations of diclofenac, dextromethorphan, and midazolam being 0.1 mg/mL; and the liver microsome concentrations of phenacetin, bupropion, amodiaquine, mephenytoin, and testosterone being 0.2 mg/mL. Probe substrate, specific inhibitor and test compound (ABX464, compound 18) were diluted to the corresponding concentration of working solution for use. A mixed solution containing liver microsomes, MgCl2, substrate, […] inhibitor, and the test compound was prepared. After the incubation, 600 μL of ice-cold ACN working solution containing IS was added to terminate the reaction, and the mixture was centrifuged and used for LC-MS/MS detection. [table] At different concentrations of the test compound or positive inhibitor, the percentage of remaining activity is determined by the ratio of the amount of characteristic metabolites of the probe substrate generated to the corresponding amount generated in the absence of the test compound or positive inhibitor. […]

Another experiment has as its target T2, CYP2C9 (Homo sapiens, UniProt P11712).
T2 construct: Commercially available mixed human liver microsomes were used; from tissue; host or cells: pooled human liver microsomes
Briefly: CYP enzyme inhibition, human liver microsomes, CYP2C9. It counts as in vitro ADME. Particulars: probe substrate Diclofenac, read-out: IC50 CYP 2C9. As to the method: as §3

T2 sequence (P11712 whole entry): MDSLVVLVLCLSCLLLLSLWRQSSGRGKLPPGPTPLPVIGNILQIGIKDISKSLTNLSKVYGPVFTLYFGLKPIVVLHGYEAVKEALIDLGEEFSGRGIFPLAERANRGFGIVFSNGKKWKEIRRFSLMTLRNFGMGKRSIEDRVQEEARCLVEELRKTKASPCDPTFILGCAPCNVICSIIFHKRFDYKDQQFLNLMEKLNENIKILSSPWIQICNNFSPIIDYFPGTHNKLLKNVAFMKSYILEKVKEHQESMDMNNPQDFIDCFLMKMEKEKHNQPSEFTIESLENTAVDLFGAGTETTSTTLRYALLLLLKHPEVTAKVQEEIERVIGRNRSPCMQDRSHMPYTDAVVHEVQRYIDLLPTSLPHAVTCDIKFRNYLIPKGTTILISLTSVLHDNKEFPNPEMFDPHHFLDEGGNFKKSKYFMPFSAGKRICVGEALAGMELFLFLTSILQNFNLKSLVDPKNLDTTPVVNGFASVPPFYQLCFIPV

Regarding `FC(F)(F)Oc1ccc(Nc2ccc3cccc(Cl)c3n2)cc1` [ABX464, reference compound], the inhibition at 10 µM was 61% in the experiment with IL-6 and 80% with TNF-α. Moreover, the values for the pIC50 on CYP2B6 and on CYP2C9 were 4.06 and 4.82, respectively.
In the same order, the values of `Fc1cc(Cl)c2nc(Nc3ccc(C4(C(F)(F)F)CC4)cc3)ccc2c1` [Compound 18, 8-chloro-6-fluoro-N-(4-(1-(trifluoromethyl)cyclopropyl)phenyl)quinolin-2-amine] are 88%, 94%, below 4.00 and 4.69.
